Earlier results as cited in patent publication US8580300B2, “Pharmaceutical formulation for treating the upper digestive tract” (Dr. Falk Pharma GmbH, priority 2008, dated 2013).

Details: budesonide resorbed in the stomach/digestive tract

CCCC1O[C@@H]2C[C@H]3[C@@H]4CCC5=CC(=O)C=C[C@]5(C)[C@H]4[C@@H](O)C[C@]3(C)[C@]2(C(=O)CO)O1 (stereo partly drawn) [budesonide, 16,17-(butylidenebis(oxy))-11,21-dihydroxy-(11-β,16-α)-pregna-1,4-diene-3,20-dione]
share of the absorbed budesonide metabolised by the first-pass effect: 90%
